Here are results for two molecules from patent US20030054411A1, “GPR motifs and uses thereof” (priority 2001, published 2003).

Assay [1] has as its target T1, Giα1 binding to GST-AGS3-GPR (Homo sapiens, UniProt P63096).
T1 construct: made in house; host or cells: Sf9 insect cells (Giα1); bacteria (His-AGS3-GPR)
The experiment in a line: Protein interaction assay: Giα1 binding to AGS3-GPR with GPR peptide. As to conditions: 10 μM GDP; Giα1 75 nM, AGS3-GPR 300 nM; read-out: IC50 for blocking the binding of Giα1 to GST-AGS3-GPR. How it is done: (§1) A and B, the carboxyl region of AGS3 (Pro^463-Ser^650) containing all four GPR repeats was generated as a His-tagged (A) or GST fusion (B) protein for protein interaction assays as described under Examples. All interactions were done in the presence of 10 μM GDP, and the input lanes represent one-tenth of the G-protein used in each interaction assay. A, Giα1 (75 nM) was incubated with 300 nM His-tagged AGS3-GPR in the absence and presence of increasing amounts of the GPR peptide, after which bound Giα was isolated on a nickel affinity matrix, and samples were processed for immunoblotting with Giα antisera. […] C and D, GTPγ^35S binding to G-proteins (100 nM) was measured in the absence and presence of peptides as described in the Examples. Data are expressed as the percent of specific binding (˜5 pmol) observed in the absence of peptide and represent the means±S.E. derived from three experiments. […]
(§2) Protein Interaction Assays—The GPR domain of AGS3 (Pro^463-Ser^650) containing the four GPR motifs was generated as a glutathione S-transferase fusion protein by polymerase chain reaction using the full-length cDNA of AGS3 as a template. […] The interaction of GST-AGS3-GPR and HIS-tagged AGS3-GPR with G-proteins was assessed by protein interaction experiments using purified G-protein as described previously (33). […]

Assay [2] has as its target T2, Giα2 binding to GST-AGS3-GPR (Homo sapiens, UniProt P04899).
T2 construct: made in house; host or cells: Sf9 insect cells (Giα2)
The experiment in a line: Protein interaction assay: Giα2 binding to AGS3-GPR with GPR peptides. Conditions: 10 μM GDP; read-out: IC50 for blocking the binding of Giα2 to GST-AGS3-GPR. How it is done:
as §1, §2

A further assay concerns the target T3, Giα1 (Homo sapiens, UniProt P63096).
T3 construct: made in house; host or cells: Sf9 insect cells
The experiment in a line: GTPγS binding assay, Giα1. In kind it is biochemical. The method, then: as §1, with “antisera. The blot in the upper panel of A was stripped and reprobed with AGS3 antisera to provide internal controls for protein loading. B, Giα2 (75 nM) was incubated with 300 nM AGS3-GPR or GST in the presence and absence of 100 μM GPR consensus peptide, GPR peptide Q15A, or GPR peptide R23F.” for “antisera.”
GTPγS Binding Assays—GTPγS binding assays were generally conducted as described (39). […] Radioactivity bound to the filters was determined by liquid scintillation counting. […]
On the technique in general: GTPγS resists hydrolysis and so accumulates on activated G proteins.

In another assay the target is T4, Giα2 (Homo sapiens, UniProt P04899).
T4 construct: made in house; host or cells: Sf9 insect cells
T4 sequence (P04899 whole entry): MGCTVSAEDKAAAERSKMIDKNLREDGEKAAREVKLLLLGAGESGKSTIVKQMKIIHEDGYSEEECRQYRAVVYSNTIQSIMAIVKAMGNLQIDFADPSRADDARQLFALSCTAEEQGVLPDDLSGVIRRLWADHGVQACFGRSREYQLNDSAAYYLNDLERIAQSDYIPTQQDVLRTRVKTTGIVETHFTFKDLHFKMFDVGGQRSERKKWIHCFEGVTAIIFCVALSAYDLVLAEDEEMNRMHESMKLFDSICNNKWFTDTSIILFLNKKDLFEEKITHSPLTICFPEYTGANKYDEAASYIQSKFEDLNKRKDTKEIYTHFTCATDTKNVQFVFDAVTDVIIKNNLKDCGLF
The experiment in a line: GTPγS binding assay, Giα2. Format: biochemical. As to conditions: G-protein 100 nM, 30 min, 24° C.; read-out: IC50 for inhibition of GTPγS binding to Giα2. How it is done: A and B, the carboxyl region of AGS3 (Pro^463-Ser^650) containing all four GPR repeats was generated as a His-tagged (A) or GST fusion (B) protein for protein interaction assays as described under Examples. All interactions were done in the presence of 10 μM GDP, and the input lanes represent one-tenth of the G-protein used in each interaction assay. A, Giα1 (75 nM) was incubated with 300 nM His-tagged AGS3-GPR in the absence and presence of increasing amounts of the GPR peptide, after which bound Giα was isolated on a nickel affinity matrix, and samples were processed for immunoblotting with Giα antisera. The blot in the upper panel of A was stripped and reprobed with AGS3 antisera to provide internal controls for protein loading. B, Giα2 (75 nM) was incubated with 300 nM AGS3-GPR or GST in the presence and absence of 100 μM GPR consensus peptide, GPR peptide Q15A, or GPR peptide R23F. The immunoblots presented in A and B are representative of three experiments. C and D, GTPγ^35S binding to G-proteins (100 nM) was measured in the absence and presence of peptides as described in the Examples. Data are expressed as the percent of specific binding (˜5 pmol) observed in the absence of peptide and represent the means±S.E. derived from three experiments. The concentration of peptides in D is 10 μM.
GTPγS Binding Assays—GTPγS binding assays were generally conducted as described (39). G-proteins (100 nM) were preincubated for 20 min at 24° C. in the presence and absence of GPR peptides. Binding assays (duplicate determinations) were initiated by addition of 0.5 μM GTPγS (4.0×10^4 dpm/pmol), and incubations (total volume=50 μl) were continued for 30 min at 24° C. Both preincubations and GTPγS binding assays were conducted in binding buffer containing 2 mM MgCl2. Reactions were terminated by rapid filtration through nitrocellulose filters with 4×4-ml washes of stop buffer (50 mM Tris-HCl, 5 mM MgCl2, 1 mM EDTA, pH 7.4, at 4° C.). Radioactivity bound to the filters was determined by liquid scintillation counting. Nonspecific binding was defined by 100 μM […].

Another assay has as its target Gtα (Homo sapiens, UniProt P11488). The experiment in a line: Competition with Gβγ subunits for binding to Gtα.

Where no end group is shown, it is not given here.

T3 sequence (P63096 whole entry): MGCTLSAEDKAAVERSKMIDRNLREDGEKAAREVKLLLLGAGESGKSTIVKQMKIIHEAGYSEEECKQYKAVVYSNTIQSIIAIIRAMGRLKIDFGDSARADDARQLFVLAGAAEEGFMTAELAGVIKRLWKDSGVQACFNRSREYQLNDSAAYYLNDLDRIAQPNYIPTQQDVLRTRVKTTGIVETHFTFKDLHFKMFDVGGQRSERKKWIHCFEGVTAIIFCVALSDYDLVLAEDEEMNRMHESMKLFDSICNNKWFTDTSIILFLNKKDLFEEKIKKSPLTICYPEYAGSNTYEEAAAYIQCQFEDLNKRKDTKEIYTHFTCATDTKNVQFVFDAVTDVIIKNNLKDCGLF
T2 sequence (P04899 2-355 limits assumed): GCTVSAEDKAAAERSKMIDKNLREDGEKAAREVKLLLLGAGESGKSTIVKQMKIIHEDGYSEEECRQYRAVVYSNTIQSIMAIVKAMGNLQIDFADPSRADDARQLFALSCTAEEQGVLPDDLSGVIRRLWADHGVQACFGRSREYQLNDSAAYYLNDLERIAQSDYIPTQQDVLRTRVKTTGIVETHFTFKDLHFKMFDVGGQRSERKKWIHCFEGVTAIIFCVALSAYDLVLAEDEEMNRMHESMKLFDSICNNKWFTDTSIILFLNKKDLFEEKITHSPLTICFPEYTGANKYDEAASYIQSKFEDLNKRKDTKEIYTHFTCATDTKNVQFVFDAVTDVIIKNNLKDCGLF
T1 sequence (P63096 2-354 limits assumed): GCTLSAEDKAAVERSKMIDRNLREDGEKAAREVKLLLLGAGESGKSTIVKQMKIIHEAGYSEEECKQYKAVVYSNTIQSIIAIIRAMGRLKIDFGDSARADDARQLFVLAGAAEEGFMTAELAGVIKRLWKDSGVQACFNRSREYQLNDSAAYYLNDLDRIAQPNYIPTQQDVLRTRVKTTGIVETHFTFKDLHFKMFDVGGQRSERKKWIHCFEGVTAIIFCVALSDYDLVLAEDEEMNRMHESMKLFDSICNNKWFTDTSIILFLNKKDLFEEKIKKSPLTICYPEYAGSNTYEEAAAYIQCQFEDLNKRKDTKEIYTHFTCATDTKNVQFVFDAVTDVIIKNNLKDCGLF
Sequence of Gtα (P11488 whole entry): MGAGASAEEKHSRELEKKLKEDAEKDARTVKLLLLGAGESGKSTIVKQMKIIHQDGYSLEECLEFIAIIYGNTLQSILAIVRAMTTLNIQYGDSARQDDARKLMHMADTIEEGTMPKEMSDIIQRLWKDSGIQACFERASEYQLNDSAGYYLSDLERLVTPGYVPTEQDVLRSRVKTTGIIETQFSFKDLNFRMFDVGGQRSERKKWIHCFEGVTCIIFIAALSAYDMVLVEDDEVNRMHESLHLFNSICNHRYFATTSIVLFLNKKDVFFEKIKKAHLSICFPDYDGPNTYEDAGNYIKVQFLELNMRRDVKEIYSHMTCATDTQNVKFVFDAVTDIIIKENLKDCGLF

A word on the IC50: it is the concentration needed to halve the response being measured. Take “TMGEEDFFDLLAKSQSKRMDDQRVDLAG-NH2 [GPR consensus peptide]”: the IC50 in assay [1] was approximately 200 nM; in assay [2], approximately 200 nM; at Giα1 (G-protein 100 nM, 30 min, 24° C., read-out: IC50 for inhibition of GTPγS binding to Giα1), approximately 200 nM; on Giα2, approximately 200 nM.

B1: AGS3-GPR: GPR domain of AGS3 (Pro463-Ser650) containing the four GPR motifs, GST or His-tagged (protein)
chain: PREGSHSPLDSADVRVQVPRTGIPRAPSSDEECFFDLLSKFQSSRMDDQRCPLEEGQAGAAEATAAPTLEERAAQPSVTASPQTEEFFDLIASSQSRRLDDQRASVGSLPGLRITLNNVGHLRGDGDPQEPGDEFFNMLIKYQSSRIDDQRCPPPDVLPRGPTMPDEDFFSLIQRVQAKRMDEQRVDL
modifications: left off: a dimerising Fc or GST
notes: GPR domain of AGS3 (Pro463-Ser650) containing the four GPR motifs, GST or His-tagged
For B1, the “GTPγS binding to Giα1 (AGS3-GPR protein)” value with Giα1 is listed as “inhibited”. For the same molecule, the “competition with Gβγ subunits for binding to Gtα” value with Gtα is “effectively competed”.
